Laboratory results: patent publication US20230265116A1, “DEGRADATION OF (EGFR) BY CONJUGATION OF EGFR INHIBITORS WITH E3 LIGASE LIGAND AND METHODS OF USE” (BEIGENE, LTD., priority 2020, published 2023)
Read-outs that look alike come from different tables or passages of the source.

Tests used:
Assay type in all cases: cell-based
[1] = tested on: EGFR Del19/T790M/C797S (BaF3-DTC cells); assay: EGFR degradation HTRF assay, BaF3-DTC cells; conditions: 16h treatment
Protocol: BaF3 WT(wild type), BaF3-LTC(L858R/T790M/C797S) and BaF3-DTC(Del19/T790M/C797S) cells are treated with compounds diluted in 0.2% DMSO cell culture medium and incubate for 16h, 37° C., 5% CO2, H1975-#36, H1975-#28, H1975-#23 and HCC827 cells are treated with compounds diluted in 0.2% DMSO cell culture medium on day 2, incubate for 16h, 37° C., 5% CO2.the final concentriation of compounds in all assay is start with 10 uM, 5-fold dilution, total 8 doses were included.
After 16h treatment, add HTRF lysis buffer to each well; seal the plate and incubate 1 hour at room temperature on a plate shaker; Once the cells are lysed, 16 μL of cell lysate are transferred to a PE 384-well HTRF detection plate; 4 μL of pre-mixed HTRF antibodies are added to each well; Cover the plate with a plate sealer, spin 1000 rpm for 1 min, Incubate overnight at room temperature; Read on BMG PheraStar with HTRF protocol (337 nm-665 nm-620 nm).
The inhibition (degradation) percentage of the compound was calculated by the following equation: Inhibition percentage of Compound=100-100×(Signal-low control)/(High control-low control), wherein signal=each test compound group
High control=Cell group with added DMSO and without compound, indicating microplate readings without EGFR degradation;
Dmax is the maximum percentage of inhibition (degradation).
The IC50 (DC50) value of a compound can be obtained by fitting the following equation
Y=Bottom+(TOP−Bottom)/(1+((IC50/X)^hillslope))
Wherein, X and Y are known values, and IC50, Hillslope, Top and Bottom are the parameters obtained by fitting with software. Y is the inhibition percentage (calculated from the equation), X is the concentration of the compound; IC50 is the concentration of the compound when the 50% inhibition is reached. The smaller the IC50 value is, the stronger the inhibitory ability of the compound is. Vice versa, the higher the IC50 value is, the weaker the inhibitory ability of the compound is; Hillslope represents the slope of the fitted curve, generally around 1*; Bottom represents the minimum value of the curve obtained by data fitting, which is generally 0%±20%; Top represents the maximum value of the curve obtained by data fitting, which is generally 100%±20%. The experimental data were fitted by calculating and analyzing with Dotmatics data analysis software.

[2] = biological target: T1, EGFR L858R/T790M/C797S (BaF3-LTC cells) (Homo sapiens, UniProt P00533, C797S/L858R/T790M); assay: EGFR degradation HTRF assay, BaF3-LTC cells
T1 construct: expressed in transfected cells; host or cells: BaF3
Outline: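 Cells treated 16 h at 37 °C, 5% CO2 in medium with 0.2% DMSO; top final concentration 10 uM, 5-fold dilution, 8 doses. Lysates read by HTRF (665/620 nm); degradation % versus DMSO high control, DC50 from four-parameter fit, Dmax as maximal degradation.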

[3] = tested on: EGFR Del19/T790M/C797S (H1975-clone #28); assay: EGFR degradation HTRF assay, H1975-clone #28 DTC cells; conditions: H1975 # 28 DTC cells; for DC50: EGFR degradation, IC50 (DC50) from curve fit, read-out: DC50(nM) H1975 # 28 DTC; for Dmax (%) H1975 # 28 DTC: maximum percentage of inhibition (degradation)
Outline: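 Cells were dosed on day 2 with an 8-point, 5-fold dilution series starting at 10 uM final and incubated 16h at 37° C. After lysis for 1 hour, HTRF antibodies were added overnight at room temperature and the plate was read at 665/620 nm. Degradation was normalised to DMSO wells and fitted for DC50 and Dmax.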

[4] = BaF3-LTC cells, EGFR degradation, IC50 (DC50) from curve fit, read-out: DC50(nM) BaF3-LTC

T1 sequence (P00533 25-1210 T790M/C797S/L858R): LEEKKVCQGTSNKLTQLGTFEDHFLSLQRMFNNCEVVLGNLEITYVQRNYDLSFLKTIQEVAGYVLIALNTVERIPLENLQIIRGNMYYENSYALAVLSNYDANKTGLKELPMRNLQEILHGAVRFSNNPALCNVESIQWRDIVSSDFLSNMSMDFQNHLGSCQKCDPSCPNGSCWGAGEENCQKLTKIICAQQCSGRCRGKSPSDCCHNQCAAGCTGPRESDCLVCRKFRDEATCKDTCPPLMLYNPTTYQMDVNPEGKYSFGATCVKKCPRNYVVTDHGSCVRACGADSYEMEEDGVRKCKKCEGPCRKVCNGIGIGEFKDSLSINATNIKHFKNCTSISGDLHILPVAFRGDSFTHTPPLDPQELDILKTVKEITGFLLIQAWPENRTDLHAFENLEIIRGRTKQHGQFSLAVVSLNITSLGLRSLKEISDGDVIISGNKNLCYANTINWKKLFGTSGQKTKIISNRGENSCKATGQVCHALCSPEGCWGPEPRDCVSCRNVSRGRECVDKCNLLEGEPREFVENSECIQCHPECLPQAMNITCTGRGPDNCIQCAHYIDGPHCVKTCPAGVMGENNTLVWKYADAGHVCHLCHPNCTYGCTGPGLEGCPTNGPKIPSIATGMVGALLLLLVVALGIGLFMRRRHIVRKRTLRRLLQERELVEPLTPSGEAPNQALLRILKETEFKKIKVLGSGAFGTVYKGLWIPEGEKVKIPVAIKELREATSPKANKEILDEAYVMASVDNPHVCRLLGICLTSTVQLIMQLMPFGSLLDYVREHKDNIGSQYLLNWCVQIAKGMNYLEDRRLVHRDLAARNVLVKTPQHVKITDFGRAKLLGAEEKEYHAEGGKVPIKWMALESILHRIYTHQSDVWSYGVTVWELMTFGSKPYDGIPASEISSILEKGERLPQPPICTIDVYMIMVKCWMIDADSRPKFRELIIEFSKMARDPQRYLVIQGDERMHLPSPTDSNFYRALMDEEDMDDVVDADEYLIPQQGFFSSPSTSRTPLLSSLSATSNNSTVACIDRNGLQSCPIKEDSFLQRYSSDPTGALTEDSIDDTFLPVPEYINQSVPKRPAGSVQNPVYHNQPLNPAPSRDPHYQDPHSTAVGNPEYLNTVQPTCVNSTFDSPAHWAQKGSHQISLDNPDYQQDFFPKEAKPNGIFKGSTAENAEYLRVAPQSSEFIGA

SMILES | DC50 ([1]; read-out: DTC DC50) [nM] | Dmax ([2]; BaF3-LTC, 16h treatment, maximum percentage of degradation, read-out: LTC Dmax (%)) [%] | DC50 ([2]; BaF3-LTC, 16h treatment, read-out: LTC DC50) [nM] | DC50 [3] [nM] | DC50 [2, 4] [nM] | Dmax ([2]; BaF3-LTC cells, maximum percentage of inhibition (degradation), read-out: Dmax (%) BaF3-LTC) [%] | DTC Dmax (%) ([1]; maximum percentage of degradation) | Dmax (%) H1975 # 28 DTC [3] [%]
CCc1cc(Nc2ncc(Br)c(Nc3ccc4nccnc4c3P(C)(C)=O)n2)c(OC)cc1N1CCC(N2CCN(CCc3ccc(C4CCC(=O)NC4=O)cc3F)CC2)CC1 (centres unmarked) [Example 6, 3-(4-(2-(4-(1-(4-((5-bromo-4-((5-(dimethylphosphoryl)quinoxalin-6-yl)amino)pyrimidin-2-yl)amino)-2-ethyl-5-methoxyphenyl)piperidin-4-yl)piperazin-1-yl)ethyl)-3-fluorophenyl)piperidine-2,6-dione] | 9.2 | 82.2 | 102 | – | – | – | 81.2 | –
CCc1cc(Nc2ncc(Br)c(Nc3ccc4nc(C5CC5)ccc4c3P(C)(C)=O)n2)c(OC)cc1N1CCC(N2CCN(CCc3cc(F)c([C@H]4CCC(=O)NC4=O)c(F)c3)CC2)CC1 [Example 741, (R)-3-(4-(2-(4-(1-(4-((5-bromo-4-((2-cyclopropyl-5-(dimethylphosphoryl)quinolin-6-yl)amino)pyrimidin-2-yl)amino)-2-ethyl-5-methoxyphenyl)piperidin-4-yl)piperazin-1-yl)ethyl)-2,6-difluorophenyl)piperidine-2,6-dione] | – | – | – | 0.761 | 11.2 | – | – | 80.67
CCOc1cc(N2CCC(N3CCN(CCc4cc(F)c(F)c5c4n(CC)c(=O)n5C4CCC(=O)NC4=O)CC3)CC2)c(CC)cc1Nc1ncc(Br)c(Nc2ccc3nc(CC)ccc3c2P(C)(C)=O)n1 (centres unmarked) [Example 742, 3-(4-(2-(4-(1-(4-((5-bromo-4-((5-(dimethylphosphoryl)-2-ethylquinolin-6-yl)amino)pyrimidin-2-yl)amino)-5-ethoxy-2-ethylphenyl)piperidin-4-yl)piperazin-1-yl)ethyl)-3-ethyl-6,7-difluoro-2-oxo-2,3-dihydro-1H-benzo[d]imidazol-1-yl)piperidine-2,6-dione] | – | – | – | 3.52 | 36.5 | – | – | 68.91
CCOc1cc(N2CCC(N3CCN(CCc4cc(F)c(F)c5c4n(CC)c(=O)n5C4CCC(=O)NC4=O)CC3)CC2)c(CC)cc1Nc1ncc(Br)c(Nc2ccc3c(=O)n(CC)ncc3c2P(C)(C)=O)n1 (centres unmarked) [Example 743, 3-(4-(2-(4-(1-(4-((5-bromo-4-((5-(dimethylphosphoryl)-2-ethyl-1-oxo-1,2-dihydrophthalazin-6-yl)amino)pyrimidin-2-yl)amino)-5-ethoxy-2-ethylphenyl)piperidin-4-yl)piperazin-1-yl)ethyl)-3-ethyl-6,7-difluoro-2-oxo-2,3-dihydro-1H-benzo[d]imidazol-1-yl)piperidine-2,6-dione] | – | – | – | 2.42 | 55.9 | 79.7 | – | 75.96
CCc1ccc2c(P(C)(C)=O)c(Nc3nc(Nc4cc(CC)c(N5CCC(N6CCN(CCc7cc(F)c([C@H]8CCC(=O)NC8=O)c(F)c7)CC6)CC5)cc4OC)ncc3Cl)ccc2n1 [Example 744, (R)-3-(4-(2-(4-(1-(4-((5-chloro-4-((5-(dimethylphosphoryl)-2-ethylquinolin-6-yl)amino)pyrimidin-2-yl)amino)-2-ethyl-5-methoxyphenyl)piperidin-4-yl)piperazin-1-yl)ethyl)-2,6-difluorophenyl)piperidine-2,6-dione] | – | – | – | 0.653 | 5.87 | – | – | 84.24
CCc1ccc2c(P(C)(C)=O)c(Nc3nc(Nc4cc(CC)c(N5CCC(C6CCN(CCc7cc(F)c([C@H]8CCC(=O)NC8=O)c(F)c7)CC6)CC5)cc4OC)ncc3Br)ccc2n1 [Example 745, (R)-3-(4-(2-(1′-(4-((5-bromo-4-((5-(dimethylphosphoryl)-2-ethylquinolin-6-yl)amino)pyrimidin-2-yl)amino)-2-ethyl-5-methoxyphenyl)-[4,4′-bipiperidin]-1-yl)ethyl)-2,6-difluorophenyl)piperidine-2,6-dione] | – | – | – | 2.25 | 40.3 | – | – | 75.21
CCOc1cc(N2CCC(N3CCN(C(=O)[C@H]4CN(c5cc(F)c([C@H]6CCC(=O)NC6=O)c(F)c5)CC4(C)C)CC3)CC2)c(CC)cc1Nc1ncc(Br)c(Nc2cc(F)c3nc(CC)ccc3c2P(C)(C)=O)n1 [Example 746, (R)-3-(4-((R)-4-(4-(1-(4-((5-bromo-4-((5-(dimethylphosphoryl)-2-ethyl-8-fluoroquinolin-6-yl)amino)pyrimidin-2-yl)amino)-5-ethoxy-2-ethylphenyl)piperidin-4-yl)piperazine-1-carbonyl)-3,3-dimethylpyrrolidin-1-yl)-2,6-difluorophenyl)piperidine-2,6-dione] | – | – | – | 11 | 30.9 | – | – | 77.61

Now from value to compound, other results behind:

DC50 ([1]; read-out: DTC DC50) [nM] | Dmax ([2]; BaF3-LTC, 16h treatment, maximum percentage of degradation, read-out: LTC Dmax (%)) [%] | DC50 ([2]; BaF3-LTC, 16h treatment, read-out: LTC DC50) [nM] | DC50 [3] [nM] | DC50 [2, 4] [nM] | Dmax ([2]; BaF3-LTC cells, maximum percentage of inhibition (degradation), read-out: Dmax (%) BaF3-LTC) [%] | SMILES | DTC Dmax (%) ([1]; maximum percentage of degradation) | Dmax (%) H1975 # 28 DTC [3] [%]
– | – | – | 2.91 | 19.8 | – | CCOc1cc(N2CCC(N3CCN(C(=O)[C@H]4CN(c5cc(F)c([C@H]6CCC(=O)NC6=O)c(F)c5)CC4(C)C)CC3)CC2)c(CC)cc1Nc1ncc(Br)c(Nc2ccc3nc(C)ccc3c2P(C)(C)=O)n1 [Example 747, (R)-3-(4-((R)-4-(4-(1-(4-((5-bromo-4-((5-(dimethylphosphoryl)-2-methylquinolin-6-yl)amino)pyrimidin-2-yl)amino)-5-ethoxy-2-ethylphenyl)piperidin-4-yl)piperazine-1-carbonyl)-3,3-dimethylpyrrolidin-1-yl)-2,6-difluorophenyl)piperidine-2,6-dione] | – | 76.51
– | – | – | 0.455 | 5.75 | – | CCc1ncc2c(P(C)(C)=O)c(Nc3nc(Nc4cc(C)c(N5CCC(N6CCN(CCc7cc(F)c([C@H]8CCC(=O)NC8=O)c(F)c7)CC6)CC5)cc4OC)ncc3Br)ccc2n1 [Example 748, (R)-3-(4-(2-(4-(1-(4-((5-bromo-4-((5-(dimethylphosphoryl)-2-ethylquinazolin-6-yl)amino)pyrimidin-2-yl)amino)-5-methoxy-2-methylphenyl)piperidin-4-yl)piperazin-1-yl)ethyl)-2,6-difluorophenyl)piperidine-2,6-dione] | – | 91.78
– | – | – | 14.8 | 294 | – | CCOc1cc(N2CCC(N3CCN(CCc4cc(F)c([C@H]5CCC(=O)NC5=O)c(F)c4)CC3)CC2)c(CC)cc1Nc1nccc(Nc2ccc3nc(CC)ncc3c2P(C)(C)=O)n1 [Example 749, (R)-3-(4-(2-(4-(1-(4-((4-((5-(dimethylphosphoryl)-2-ethylquinazolin-6-yl)amino)pyrimidin-2-yl)amino)-5-ethoxy-2-ethylphenyl)piperidin-4-yl)piperazin-1-yl)ethyl)-2,6-difluorophenyl)piperidine-2,6-dione] | – | 66.03
– | – | – | 0.759 | 9.43 | – | CCc1cc(Nc2ncc(Br)c(Nc3ccc4nccnc4c3P(C)(C)=O)n2)c(OC)cc1N1CCC(N2CCN(CCc3cc(F)c([C@H]4CCC(=O)NC4=O)c(F)c3)CC2)CC1 [Example 751, (R)-3-(4-(2-(4-(1-(4-((5-bromo-4-((5-(dimethylphosphoryl)quinoxalin-6-yl)amino)pyrimidin-2-yl)amino)-2-ethyl-5-methoxyphenyl)piperidin-4-yl)piperazin-1-yl)ethyl)-2,6-difluorophenyl)piperidine-2,6-dione] | – | 92.19
